Like-named read-outs stand apart in the source and are kept apart here.
Assays:
LasR [1] = molecular target: T1, LasR (Pseudomonas aeruginosa, UniProt P25084); details: read-out: EC50 E. coli LasR; controls; compound alone; ref 5a; cited from earlier work
TraR [2] = molecular target: T2, TraR (Agrobacterium tumefaciens, UniProt P33905); details: shown previously; cited from earlier work
LasR [3] = molecular target: T1, LasR; details: shown previously; cited from earlier work
LuxR [4] = molecular target: T3, LuxR (Aliivibrio fischeri, UniProt P35327); experiment: LuxR agonism reporter assay; type: cell-based, Vibrio fischeri
T3 sequence (P35327 whole entry): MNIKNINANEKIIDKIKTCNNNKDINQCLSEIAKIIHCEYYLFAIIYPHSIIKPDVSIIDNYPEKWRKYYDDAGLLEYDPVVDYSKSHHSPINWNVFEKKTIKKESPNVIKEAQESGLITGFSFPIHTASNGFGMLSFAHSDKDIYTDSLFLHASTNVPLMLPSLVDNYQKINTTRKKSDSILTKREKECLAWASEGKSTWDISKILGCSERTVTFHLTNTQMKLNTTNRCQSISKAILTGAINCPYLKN

TraR [5] = molecular target: T2, TraR; experiment: TraR antagonism reporter gene assay; type: cell-based
LasR [6] = molecular target: T1, LasR; experiment: LasR agonism reporter gene assay, E. coli DH5α; type: cell-based
LuxR [7] = molecular target: T3, LuxR; experiment: LuxR antagonism reporter assay; type: cell-based, Vibrio fischeri
LuxR [8] = molecular target: T3, LuxR; details: shown previously; cited from earlier work
LuxR [9] = molecular target: T3, LuxR; details: cited from earlier work

T2 sequence (P33905 whole entry): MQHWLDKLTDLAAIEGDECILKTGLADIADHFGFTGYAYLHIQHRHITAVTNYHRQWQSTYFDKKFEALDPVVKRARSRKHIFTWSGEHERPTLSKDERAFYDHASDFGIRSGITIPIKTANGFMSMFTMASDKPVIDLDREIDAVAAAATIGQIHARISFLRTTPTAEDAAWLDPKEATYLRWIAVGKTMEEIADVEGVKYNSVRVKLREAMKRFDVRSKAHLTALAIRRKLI
T1 sequence (P25084 whole entry): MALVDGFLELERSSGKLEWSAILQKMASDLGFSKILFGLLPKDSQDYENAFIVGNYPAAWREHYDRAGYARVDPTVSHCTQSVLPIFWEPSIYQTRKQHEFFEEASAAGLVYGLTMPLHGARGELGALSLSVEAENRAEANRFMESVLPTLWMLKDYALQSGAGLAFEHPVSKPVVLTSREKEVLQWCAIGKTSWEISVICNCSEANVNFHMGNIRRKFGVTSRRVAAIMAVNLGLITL

Structure (SMILES): O=C(COc1ccc(OC(F)(F)F)cc1)N[C@H]1CCOC1=O [compound 6, 4-OCF3 POHL]
- EC50 (LasR [1]): 6300 nM
- TraR inhibition (in words) (TraR [2]): strong
- LasR inhibition (in words) (LasR [3]): moderate

Structure (SMILES): O=C(Cc1cc(C(F)(F)F)cc(C(F)(F)F)c1)N[C@H]1CCOC1=O [E9, 3,5-CF3 PHL]
- EC50 (LuxR [4]): 370 nM

Structure (SMILES): O=C(COc1ccc([N+](=O)[O-])cc1)N[C@H]1CCOC1=O [E24, 4-NO2 POHL]
- IC50 (TraR [5]): ~250 nM

Structure (SMILES): O=C(CCc1ccc2c(c1)OCO2)N[C@H]1CCOC1=O [E39]
- EC50 (LasR [6]): > 10000 nM

Structure (SMILES): O=C(CCc1cccc(C(F)(F)F)c1)N[C@H]1CCOC1=O [E36, 3-CF3 PPHL]
- IC50 (LuxR [7]): ~470 nM

Structure (SMILES): O=C(CCc1ccc(C(F)(F)F)cc1)N[C@H]1CCOC1=O [E35, 4-CF3 PHHL]
- IC50 (TraR [5]): ~250 nM
- EC50 (LasR [6]): > 10000 nM

Structure (SMILES): O=C(CCc1ccc(Br)cc1)N[C@H]1CCOC1=O [compound 8, 4-bromo PPHL]
- TraR inhibition (in words) (TraR [2]): potent inhibitor
- LuxR inhibition (in words) (LuxR [8]): potent inhibitor
- LasR inhibition (in words) (LasR [3]): potent inhibitor

Structure (SMILES): O=C(CCc1cccc(I)c1)N[C@H]1CCOC1=O [E33, 3-I PPHL]
- IC50 (LuxR [7]): ~470 nM

Structure (SMILES): O=C(Cc1ccc(SC(F)(F)F)cc1)N[C@H]1CCOC1=O [E8, 4-SCF3 PHL]
- EC50 (LasR [6]): 3400 nM

Structure (SMILES): O=C(CCc1ccccc1)NC1CCOC1=O (centres unmarked) [compound 7, non-substituted PPHL]
- TraR inhibition (in words) (TraR [2]): minimal activity
- LuxR inhibition (in words) (LuxR [8]): minimal activity
- LasR inhibition (in words) (LasR [3]): minimal activity

Structure (SMILES): O=C(Cc1cccc([N+](=O)[O-])c1)N[C@H]1CCOC1=O [compound 4, 3-NO2 PHL]
- LuxR activation threshold level (LuxR [9]; previously reported LuxR activator): ~ 100%
- EC50 (LuxR [9]; read-out: EC50 V. fischeri LuxR, controls, compound alone, ref 5a): 350 nM

Structure (SMILES): O=C(Cc1cccc(C(F)(F)F)c1)N[C@H]1CCOC1=O [E3, 3-CF3 PHL]
- LuxR activation (in words) (LuxR [4]; Library E): failed to activate LuxR

Structure (SMILES): O=C(CCc1ccc(I)cc1)N[C@H]1CCOC1=O [E32]
- EC50 (LasR [6]): > 10000 nM

Structure (SMILES): N#Cc1cccc(CC(=O)N[C@H]2CCOC2=O)c1 [E5, 3-CN PHL]
- EC50 (LuxR [4]): 300 nM

Structure (SMILES): O=C(CCc1cccc(Br)c1)N[C@H]1CCOC1=O [E31, 3-Br PPHL]
- IC50 (LuxR [7]): ~470 nM
